# Results: patent publication US10647699B2, “Substituted 2-oxyimidazolylcarboxamides as pesticides” (Bayer CropScience Aktiengesellschaft, priority 2016, dated 2020)
# Read-outs that look alike come from different tables or passages of the source.
# Columns and labels:
# [1] = tested on: Myzus persicae; assay: Myzus persicae spray test (MYZUPE), Chinese cabbage leaf discs; type: in vivo; settings: for Emax at 100 g/ha: MYZUPE, 100 g of ai/ha, read-out: % efficacy
# Description: Myzus persicae—Spray Test
# To produce a suitable preparation of active compound, 1 part by weight of active compound is dissolved using the specified parts by weight of solvent and made up with water containing an emulsifier concentration of 1000 ppm until the desired concentration is attained. To produce further test concentrations, the formulation is diluted with emulsifier-containing water.
# Discs of Chinese cabbage leaves (Brassica pekinensis) infested by all stages of the green peach aphid (Myzus persicae) are sprayed with an active compound formulation of the desired concentration.
# After 5 or 6 days, the efficacy in % is determined. 100% means that all the aphids have been killed; 0% means that no aphids have been killed.
# Myzus persicae—Spray Test (MYZUPE)
# Discs of Chinese cabbage leaves (Brassica pekinensis) infested by all stages of the green peach aphid (Myzus persicae) are sprayed with an active compound preparation of the desired concentration.
# After the desired period of time, the efficacy in % is determined. 100% means that all the aphids have been killed; 0% means that no aphids have been killed.
# [2] = tested on: Myzus persicae; assay: Myzus persicae oral test (MYZUPE O); type: in vivo; settings: for Emax at 0.8 ppm / Emax at 4 ppm: MYZUPE O, 5 dat, read-out: % efficacy
# Description: Solvent: 100 parts by weight of acetone
# To produce a suitable preparation of active compound, 1 part by weight of active compound is dissolved using the specified parts by weight of solvent and made up with water until the desired concentration is attained.
# 50 μl of the active compound preparation are transferred into microtitre plates and made up to a final volume of 200 μl with 150 μl of IPL41 insect medium (33%+15% sugar). Subsequently, the plates are sealed with parafilm, which a mixed population of green peach aphids (Myzus persicae) within a second microtitre plate is able to puncture and imbibe the solution through it.
# After 5 days, the efficacy in % is determined. 100% means that all the aphids have been killed; 0% means that no aphids have been killed.
# Myzus persicae—Oral Test (MYZUPE O)
# After 5 or 6 days (dat), the efficacy in % is determined. 100% means that all the aphids have been killed; 0% means that no aphids have been killed.
# [3] = log P by HPLC on reversed-phase columns (OECD Guideline 117), neutral range; type: physicochemical; settings: for chromatographic logP: reversed-phase (C18) HPLC column
# [4] = after 6 days, application rate 500 g/ha
# [5] = after 5 days, application rate 20 ppm
# [6] = after 5 days, application rate 500 g/ha
# [7] = after 5 days, application rate 4 ppm
smiles,measurement,setting,value
"Cc1nc(C(=O)Nc2cccnc2)c[nH]1 [Comparative Ex. 1, reference compound]",Emax at 100 g/ha,"[1]; Myzus persicae, foliar, 5/6 dat",0%
same,Emax at 0.8 ppm,"[2]; Myzus persicae, po, 120 h",0%
same,Emax at 4 ppm,"[2]; Myzus persicae, po, 120 h",0%
"O=C(Nc1cccnc1)c1c[nH]cn1 [Comparative Ex. 2, reference compound]",Emax at 100 g/ha,"[1]; Myzus persicae, foliar, 144 h, 6 dat",0%
same,Emax at 0.8 ppm,"[2]; Myzus persicae, po, 120 h",0%
same,Emax at 4 ppm,"[2]; Myzus persicae, po, 120 h",0%
CN(C(=O)c1cnc(OCc2ncccn2)n1C)c1cccnc1 [Example II-11],LogP-neutral,[3]; pH 7.8,0.53
CN(C(=O)c1cnc(Oc2ccccc2Cl)n1C)c1cccnc1 [Example II-13],LogP-neutral,"[3]; HPLC, neutral range pH 7.8",1.94
same,efficacy,[1]; [4],100%
same,efficacy,[2]; [5],100%
CN(C(=O)c1cnc(Oc2ccccn2)n1C)c1cccnc1 [Example II-16],LogP-neutral,"[3]; HPLC, neutral range pH 7.8",1.13
same,efficacy,[2]; [5],100%
CN(C(=O)c1cnc(OCc2ccc(F)cc2)n1C)c1cccnc1 [Example II-18],efficacy,[1]; [4],100%
same,efficacy,[2]; [5],100%
CCC(C)Oc1ncc(C(=O)N(C)c2cccnc2)n1C (stereo not drawn) [Example II-20],LogP-neutral,[3]; pH 7.8,1.75
same,efficacy,[1]; [4],100%
same,efficacy,[2]; [5],100%
CN(C(=O)c1cnc(OC2CCCC2)n1C)c1cccnc1 [Example II-21],LogP-neutral,[3]; pH 7.8,1.83
same,efficacy,[1]; [4],90%
same,efficacy,[2]; [5],90%
CN(C(=O)c1cnc(OC2CCCCC2)n1C)c1cccnc1 [Example II-22],LogP-neutral,[3]; pH 7.8,2.15
same,efficacy,[1]; [4],90%
same,efficacy,[2]; [5],90%
CN(C(=O)c1cnc(Oc2ccc(Cl)c(Cl)c2)n1C)c1cccnc1 [Example II-28],LogP-neutral,"[3]; HPLC, neutral range pH 7.8",2.57
same,efficacy,[1]; [6],100%
same,efficacy,[2]; [5],90%
COc1ccc(Oc2ncc(C(=O)N(C)c3cccnc3)n2C)cn1 [Example II-39],LogP-neutral,[3]; pH 7.8,1.5
same,efficacy,[1]; [6],90%
same,efficacy,[2]; [5],90%
Cc1ccc(Oc2ncc(C(=O)N(C)c3cccnc3)n2C)cn1 [Example II-44],LogP-neutral,[3]; pH 7.8,1.26
same,efficacy,[1]; [6],90%
same,efficacy,[2]; [5],100%
CCOc1ncc(C(=O)N(CC)c2cccnc2)n1C [Example II-48],LogP-neutral,[3]; pH 7.8,1.45
same,efficacy,[1]; [6],90%
same,efficacy,[2]; [5],100%
CN(C(=O)c1cnc(Oc2ccc(Oc3ccc(F)nc3)nc2)n1C)c1cccnc1 [Example II-49],LogP-neutral,[3]; pH 7.8,1.86
same,efficacy,[1]; [6],90%
same,efficacy,[2]; [5],100%
CN(C(=O)c1cnc(Oc2ccc(Oc3ccc(Oc4ccc(F)nc4)nc3)nc2)n1C)c1cccnc1 [Example II-50],LogP-neutral,[3]; pH 7.8,2.3
same,efficacy,[1]; [6],90%
same,efficacy,[2]; [5],100%
CCN(C(=O)c1cnc(Oc2ccc(Oc3ccc(Cl)nc3)nc2)n1C)c1cccnc1 [Example II-51],LogP-neutral,[3]; pH 7.8,2.26
same,efficacy,[1]; [6],100%
same,efficacy,[2]; [5],100%
Cc1ccncc1Oc1ncc(C(=O)N(C)c2cccnc2)n1C [Example II-53],LogP-neutral,"[3]; HPLC, neutral range pH 7.8",1.24
same,efficacy,[1]; [6],90%
same,efficacy,[2]; [5],100%
Cc1cncc(Oc2ncc(C(=O)N(C)c3cccnc3)n2C)c1 [Example II-54],LogP-neutral,[3]; pH 7.8,1.31
same,efficacy,[1]; [6],90%
same,efficacy,[2]; [5],100%
CN(C(=O)c1cnc(Oc2cccnc2)n1C)c1cccnc1 [Example II-55],LogP-neutral,"[3]; HPLC, neutral range pH 7.8",1.08
same,efficacy,[1]; [6],100%
same,efficacy,[2]; [5],100%
CN(C(=O)c1cnc(Oc2ccc(C(F)(F)F)nc2)n1C)c1cccnc1 [Example II-56],LogP-neutral,[3]; pH 7.8,1.9
same,efficacy,[1]; [6],90%
same,efficacy,[2]; [5],100%
Cc1cc(Oc2ncc(C(=O)N(C)c3cccnc3)n2C)cnc1Cl [Example II-57],LogP-neutral,[3]; pH 7.8,1.78
same,efficacy,[1]; [6],90%
same,efficacy,[2]; [5],100%
Cc1cc(Cl)ncc1Oc1ncc(C(=O)N(C)c2cccnc2)n1C [Example II-59],LogP-neutral,[3]; pH 7.8,1.68
same,efficacy,[1]; [6],90%
same,efficacy,[2]; [5],100%
COc1cncc(Oc2ncc(C(=O)N(C)c3cccnc3)n2C)c1 [Example II-60],LogP-neutral,[3]; pH 7.8,1.28
same,efficacy,[1]; [6],90%
same,efficacy,[2]; [5],100%
CN(C(=O)c1cnc(Oc2ccc(Br)nc2)n1C)c1cccnc1 [Example II-61],LogP-neutral,[3]; pH 7.8,1.63
same,efficacy,[1]; [6],100%
same,efficacy,[2]; [5],90%
CN(C(=O)c1cnc(Oc2cncc(C#N)c2)n1C)c1cccnc1 [Example II-62],LogP-neutral,"[3]; HPLC, neutral range pH 7.8",1.27
same,efficacy,[1]; [6],90%
same,efficacy,[2]; [5],100%
CN(C(=O)c1cnc(Oc2cnc3ccccc3c2)n1C)c1cccnc1 [Example II-63],chromatographic logP,"[3]; HPLC, neutral range pH 7.8, read-out: LogP-neutral",1.72
same,Emax at 100 g/ha,"[1]; Myzus persicae, foliar, 120 h, 5 dat",90%
same,pest or weed control at 500 g/ha,"[1]; Myzus persicae, foliar, 120 h, after 5 days, application rate 500 g/ha, read-out: efficacy",90%
same,Emax at 0.8 ppm,"[2]; Myzus persicae, po, 120 h",90%
same,Emax at 4 ppm,"[2]; Myzus persicae, po, 120 h",100%
same,pest or weed control at 20 ppm,"[2]; Myzus persicae, po, 120 h, after 5 days, application rate 20 ppm, read-out: efficacy",100%
COc1cc(Oc2ncc(C(=O)N(C)c3cccnc3)n2C)cnc1OC [Example II-64],LogP-neutral,[3]; pH 7.8,1.49
same,efficacy,[1]; [6],100%
same,efficacy,[2]; [7],100%
CN(C(=O)c1cnc(Oc2cnccc2Cl)n1C)c1cccnc1 [Example II-65],LogP-neutral,[3]; pH 7.8,1.4
same,efficacy,[1]; [6],100%
same,efficacy,[2]; [5],100%
CN(C(=O)c1cnc(Oc2cccnc2Cl)n1C)c1cccnc1 [Example II-66],LogP-neutral,"[3]; HPLC, neutral range pH 7.8",1.45
same,efficacy,[1]; [6],100%
same,efficacy,[2]; [5],100%
CN(C(=O)c1cnc(Oc2cncc(Br)c2)n1C)c1cccnc1 [Example II-67],LogP-neutral,[3]; pH 7.8,1.62
same,efficacy,[1]; [6],100%
same,efficacy,[2]; [5],100%
CN(C(=O)c1cnc(Oc2ccc(Cl)nc2)n1C)c1cccnc1 [Example II-68],LogP-neutral,"[3]; HPLC, neutral range pH 7.8",1.45
same,efficacy,[1]; [6],90%
same,efficacy,[2]; [5],100%
CN(C(=O)c1cnc(Oc2ccc(Oc3ccc(Cl)nc3)nc2)n1C)c1cccnc1 [Example II-69],LogP-neutral,[3]; pH 7.8,1.94
COc1ncc(Cl)cc1Oc1ncc(C(=O)N(C)c2cccnc2)n1C [Example II-70],LogP-neutral,[3]; pH 7.8,2.02
same,efficacy,[1]; [6],90%
same,efficacy,[2]; [5],100%
CN(C(=O)c1cnc(Oc2cccc(C#N)c2)n1C)c1cccnc1 [Example II-72],LogP-neutral,"[3]; HPLC, neutral range pH 7.8",1.52
same,efficacy,[1]; [6],90%
same,efficacy,[2]; [5],100%
CCOc1cccc(Oc2ncc(C(=O)N(C)c3cccnc3)n2C)c1 [Example II-73],LogP-neutral,[3]; pH 7.8,2.1
same,efficacy,[1]; [6],90%
same,efficacy,[2]; [5],100%
CC(=O)Nc1cccc(Oc2ncc(C(=O)N(C)c3cccnc3)n2C)c1 [Example II-74],LogP-neutral,[3]; pH 7.8,1.25
same,efficacy,[1]; [6],90%
same,efficacy,[2]; [5],100%
CCc1cccc(Oc2ncc(C(=O)N(C)c3cccnc3)n2C)c1 [Example II-75],LogP-neutral,"[3]; HPLC, neutral range pH 7.8",2.35
same,efficacy,[1]; [6],90%
same,efficacy,[2]; [5],100%
COc1cccc(Oc2ncc(C(=O)N(C)c3cccnc3)n2C)c1 [Example II-76],LogP-neutral,[3]; pH 7.8,1.75
CCCc1cccc(Oc2ncc(C(=O)N(C)c3cccnc3)n2C)c1 [Example II-77],LogP-neutral,[3]; pH 7.8,2.66
same,efficacy,[1]; [6],100%
same,efficacy,[2]; [5],90%
CN(C(=O)c1cnc(Oc2cccc(C(F)(F)F)c2F)n1C)c1cccnc1 [Example II-78],LogP-neutral,[3]; pH 7.8,2.39
same,efficacy,[1]; [6],100%
same,efficacy,[2]; [5],100%
Cc1cccc(Oc2ncc(C(=O)N(C)c3cccnc3)n2C)c1 [Example II-79],LogP-neutral,"[3]; HPLC, neutral range pH 7.8",1.97
same,efficacy,[1]; [6],90%
same,efficacy,[2]; [5],90%
CN(C(=O)c1cnc(Oc2cccc(S(C)(=O)=O)c2)n1C)c1cccnc1 [Example II-80],LogP-neutral,[3]; pH 7.8,1.31
same,efficacy,[1]; [6],100%
same,efficacy,[2]; [5],100%
CN(C(=O)c1cnc(Oc2ccc(F)c(C(F)(F)F)c2)n1C)c1cccnc1 [Example II-83],LogP-neutral,[3]; pH 7.8,2.42
same,efficacy,[1]; [6],90%
same,efficacy,[2]; [7],100%
CON=Cc1cccc(Oc2ncc(C(=O)N(C)c3cccnc3)n2C)c1 [Example II-84],LogP-neutral,[3]; pH 7.8,2.04
same,efficacy,[1]; [6],90%
same,efficacy,[2]; [5],100%
CN(C(=O)c1cnc(OCC(F)(F)F)n1C)c1cccnc1 [Example II-96],LogP-neutral,[3]; pH 7.8,0.9
CCN(C(=O)c1cnc(Oc2cncc(Cl)c2)n1C)c1cccnc1 [Example II-97],LogP-neutral,[3]; pH 7.8,2.03
CC(C)Oc1ncc(C(=O)Nc2cccnc2)n1C [II-1-H],log P[n],[3]; pH 7.8,1.61
"CN(C(=O)c1cnc(Cl)n1C)c1cccnc1 [IX-1, 2-chloro-N, 1-dimethyl-N-(pyridin-3-yl)-1H-imidazole-5-carboxamide]",chromatographic logP,"[3]; pH 7.8, HPLC-MS, neutral, read-out: log P[n]",0.88
Cn1c(C(=O)Nc2cccnc2)c[nH]c1=O [VI-1-H],log P[n],[3]; pH 7.8,0.1
